Reference: patent US9561232B2, “Low dose noribogaine for treating nicotine addiction and preventing relapse of nicotine use” (priority 2014, dated 2017)
“Also recorded” adds a separate entry of the source. Like-named read-outs stand apart in the source and are kept apart here.

What was measured:
[1] = Ascending single oral dose pharmacokinetics of noribogaine in healthy volunteers (plasma, urine, LCMSMS); details: for mean AUC/24 hr / mean AUC/24: fasting conditions, serum
[2] = Pupillometry (pupillary miosis) in healthy volunteers; assay type: in vivo, human
Experimental: Pupillary miosis was assessed by pupillometry.

[3] = Cold pressor test in healthy volunteers; assay type: in vivo, human; details: ANOVA after adjusting for baseline
Experimental: Analgesic effect was assessed based on duration of hand immersion in ice water and on visual analog scale (VAS) pain scores upon hand removal from the water bath.

[4] = system: opioid-dependent participants; assay: Efficacy in opioid-dependent participants: time to resumption of OST and COWS/OOWS/SOWS withdrawal scores; assay type: in vivo, human
Experimental: The efficacy of noribogaine in humans was evaluated in opioid-dependent participants in a randomized, placebo-controlled, double-blind trial. […] See U.S. application Ser. No. 14/214,157, filed Mar. 14, 2014 and Ser. No. 14/346,655, filed Mar. 21, 2014, which are incorporated herein by reference in their entireties.
Three cohorts of nine (9) subjects (6 administered noribogaine and 3 administered placebo in each cohort) were evaluated for tolerability, pharmacokinetics, and efficacy. Cohort 1 received a single dose of 60 mg noribogaine or placebo. Cohort 2 received a single dose of 120 mg noribogaine or placebo. Cohort 3 received a single dose of 180 mg noribogaine or placebo. […] Headaches were frequent in the placebo and 60 mg noribogaine treatment groups, but were attenuated in the 120 mg and 180 mg dose groups.
Patients were evaluated based on the Clinical Opiate Withdrawal Scale (COWS), Subjective Opiate Withdrawal Scale (SOWS), and Objective Opiate Withdrawal Scale (OOWS) scoring systems over the period of time between administration of noribogaine (or placebo) until resumption of OST. These scales are outlined in Guidelines for the Psychosocially Assisted Pharmacological Treatment of Opioid Dependence, World Health Organization, Geneva (2009), Annex 10, which is incorporated herein by reference in its entirety. The scales measure the intensity of withdrawal symptoms, based on clinical, subjective, and objective indicia.

[5] = QT interval evaluation in opioid-dependent participants; assay type: in vivo, human; details: 60, 120, 180 mg, first 24 hours post administration; correlated with serum concentration
Experimental: Patients' QT intervals were evaluated at regular time points throughout the study.

nicotine dependent rats = assay: Nicotine self-administration test; assay type: in vivo, Sprague-Dawley rats; details: for inactive lever press during nicotine self-administration: all treatments, repeated measure ANOVA, P>0.05
[6] = system: zebrafish during nicotine withdrawal; assay type: in vivo
Experimental: A total of 60 adult wild type short-fin zebrafish (˜50:50 male:female ratio) were used in this study. Fish were housed in groups of 20-30 fish per 40-L tank. Tanks were filled with filtered water and maintained at 25° C. Illumination (1000-1100 lx) was provided by ceiling-mounted fluorescent lights on a 12-h cycle (on: 6.00 h, off: 18.00 h) according to the standards of zebrafish care. All fish used in this study were experimentally naïve and fed Tetramin Tropical Flakes (Tetra USA, Blacksburg, Va.) twice a day. Following behavioral testing, the animals were euthanized in 500 mg/L Tricaine (Sigma-Aldrich, St. Louis, Mo.) buffered to pH=7.0. Animal experimentation in this study fully adhered to national and institutional guidelines and regulations.
A 1 mg/L dose of noribogaine (DMX1) was chosen based on pilot experiments and literature reports on effective doses other similar compounds. […] A standard 20-min pre-treatment time was chosen based on experience with a wide range of other neuroactive compounds and the results of pilot studies. This exposure time was also sufficient for provoking physiological (e.g., cortisol and c-fos) responses of zebrafish to multiple drugs. Drug exposure in this study was performed by submerging individual zebrafish in a 1-L plastic beaker for 20 min prior to the testing. The solution was regularly changed after each exposure, to ensure that each fish is exposed to a consistent concentration of noribogaine. Control fish were exposed to noribogaine-free water for the same treatment time, as described above.
Behavioral testing was performed between 11:00 and 15:00 h using tanks with water adjusted to the holding room temperature (25° C.). The study used the novel tank test (NTT) protocol. NTT represents one of the most commonly used neurophenotyping tests for adult zebrafish. To avoid the test battery or handling effects, each assay was performed once, on a separate individual naïve fish each time. Prior to testing, fish were pre-exposed individually in a 1-L plastic beaker for 20 min to either drug-treated or drug-free water. During testing, zebrafish behavior was recorded by two trained observers blind to the treatments, who manually scored different behavioral endpoints (inter- and intra-rater reliability in all experiments>0.85) with subsequent automated analysis of generated traces by Ethovision XT8.5 software (Noldus IT, Wageningen, Netherlands). The NTT, used to assess zebrafish anxiety and locomotion, was a 1.5-L trapezoidal tank (15 cm height×28 cm top×23 cm bottom×7 cm width; Aquatic Habitats, Apopka, Fla.) maximally filled with water and divided into two equal virtual horizontal portions by a line marking the outside walls. Fish were individually pre-exposed to water (water control), chronic nicotine (1 mg/L), repeated withdrawal from chronic nicotine (WD), and repeated withdrawal plus noribogaine (1 mg/L) for 20 min and tested in the standard 5-min NTT.
Zebrafish behavior was recorded by trained observers, scoring the latency to reach the top half of the tank(s), time spent in top(s), number of transitions to top, as well as the number and duration(s) of freezing bouts. Freezing was defined as a total absence of movement, except for the gills and eyes, for >2 s. Trials were also recorded to a computer using a USB webcam (2.0-megapixel, Gigaware, UK) and subsequently analyzed by Ethovision XT8.5, assessing distance traveled (m), velocity (m/s), and meandering endpoints. During manual observation, videos were recorded in MPEG1 format with the maximum sample rate 30 fps for each trial by auto-focusing 2.0 MP USB webcams, placed 25 cm in front of the tanks, and attached to laptop computers. Recorded videos were analyzed with Ethovision XT8.5 software. All environments were calibrated for each arena and the calibration axes were placed to designate the origin (0,0) at the center of each tank. […]

[7] = Safety and tolerability of noribogaine in healthy humans
[8] = Pharmacokinetics in opioid-dependent patients (Phase IB study); details: 60, 120, 180 mg cohorts
[9] = Treatment emergent adverse events in opioid-dependent participants
habitual smoker = assay: Low dose intranasal noribogaine on smoking craving; assay type: in vivo, human; details: nanogram amount absorbed intranasally, during a period of several hours
Source text: A habitual smoker intranasally absorbed a nanogram amount of noribogaine hydrochloride. […] The patient was unaware during that period of any nicotine or smoking cravings.

[10] = nicotine withdrawal + 1 mg/L, 20 min immersion, 5-min NTT
[11] = nicotine withdrawal + 1 mg/L, NTT
[12] = nicotine withdrawal + 1 mg/L, vs control, chronic nicotine and nicotine withdrawal groups
[13] = noribogaine in plasma, across dose groups 3-60 mg

CC[C@H]1C[C@@H]2C[C@H]3c4[nH]c5ccc(OC6OC(C(=O)O)C(O)C(O)C6O)cc5c4CCN(C2)[C@@H]13 (some centres unmarked) [Noribogaine glucuronide, noribogaine glucuronide]
time by which detected in plasma of all subjects ([1]; 30 mg and 60 mg noribogaine dose groups): ≤ 0.75 h | proportion of Cmax and AUC relative to noribogaine ([1]; both dose groups (30 mg, 60 mg)): 3-4% | time of peak concentrations after noribogaine dosing ([1]; noribogaine glucuronide in plasma, 30 mg and 60 mg dose groups): 3 to 4 h

CC[C@H]1CC2C[C@H]3c4[nH]c5ccc(O)cc5c4CCN(C2)C13 [Noribogaine]
pupil diameter, each dose group compared with placebo ([2]; ANOVA after adjusting for baseline, 3-60 mg): no statistically significant differences | pupillary constriction ([2]; healthy volunteers, single oral 3-60 mg): no evidence of pupillary constriction | VAS pain scores, each dose group compared with placebo [3]: no statistically significant differences | duration of hand immersion, each dose group compared with placebo [3]: no statistically significant differences | withdrawal symptoms (COWS, OOWS, SOWS), first six hours following dosing ([4]; 120 mg): generally experienced fewer withdrawal symptoms than the other patients | withdrawal symptoms (COWS, OOWS, SOWS), noribogaine versus placebo ([4]; 60, 120, 180 mg, first six hours following dosing): Patients administered placebo generally experienced more withdrawal symptoms than patients who were administered noribogaine | average time to resumption of opioids (OST) ([4]; single 180 mg dose): still longer than untreated patients | QT interval prolongation (ΔQTcl) [5]: dose-dependent increase in QT interval prolongation | nicotine infusion (nicotine dependent rats; 12.5 mg/kg orally 2 hours prior to test, P<0.10 vs vehicle): A trend of depression of nicotine infusions | nicotine infusion (nicotine dependent rats; 25 mg/kg orally 2 hours prior to test, P<0.001 vs vehicle): significantly depressed nicotine infusion | nicotine infusion (nicotine dependent rats; 50 mg/kg orally 2 hours prior to test, P<0.001 vs vehicle): significantly depressed nicotine infusion | inactive lever press during nicotine self-administration (nicotine dependent rats): no significant main effect of treatment | anxiolytic-like effects (manual NTT endpoints) ([6]; 1 mg/L): statistically significant anxiolytic-like effects | circling behavior ([6]; 1 mg/L, NTT, unaltered turn angle): did not evoke circling behavior | Anxiogenic-like and locomotor effects of repeated nicotine withdrawal ([6]; 1 mg/L, acute): fully reversed | motor activity (distance traveled and velocity measures) ([6]; 1 mg/L, computer-generated NTT endpoints): unaltered motor activity | efficacy in pilot experiment ([6]; 1 mg/L, dose did not promote locomotor effects): sub-maximal efficacy | latency to top [6, 10]: statistically significant decrease | transitions to top [6, 10]: statistically significant increase | transitions to upper half of tank per minute (habituation) [6, 10]: reached values equivalent to the control group at 5 minutes | Average velocity [6, 11]: corrected by noribogaine treatment | Freezing bouts' frequency and duration [6, 11]: reversed that effect in nicotine withdrawal fish and re-established levels to that of the control fish group | Total distance traveled (anxiety-like response of withdrawal group) [6, 11]: corrected by treatment with noribogaine | absolute change in direction (rotation angle) [6, 11]: no difference observed | absolute change in direction of movement per distance moved (FIG. 12, panel G), reduced in withdrawal group [6, 11]: corrected by treatment with noribogaine | freezing bouts frequency [6, 11]: re-established the high bouts due to nicotine withdrawal toward control levels | high-mobility number of events [6, 11]: increase in high-mobility number of events | increase of hi-mobility duration and frequency (factor) [6, 11]: ~2 | mobility and immobility endpoints (durations, frequency) [6, 11]: reestablished mobility (mobile and immobile) durations and frequency in nicotine treated fish to control values | relative change in direction; absolute change in direction of movement per distance moved (FIG. 12, panels E and F) [6, 11]: no change was seen | mobility and immobility endpoints (durations, frequency) ([6]; nicotine withdrawal + 1 mg/L, NTT, listed as noribogaine): control-equivalent values for mobility and immobility endpoints | turning rotation rate ([6]; nicotine withdrawal + 1 mg/L, over chronic nicotine and nicotine withdrawal groups): slight increase in turning rotation rate | average entry duration [6, 12]: increased average entry duration | time spent in top [6, 12]: Statistically significant increases in the duration of time spent in the top(s) portion of the tank | number of adverse events reported ([7]; 3 mg dose group): five adverse events were reported by two subjects | number of adverse events reported ([7]; 10 mg dose group): one adverse event was reported by single subjects | number of adverse events reported ([7]; 30 mg dose group): one adverse event was reported by single subjects | intensity of adverse events ([7]; all dose groups, all resolved prior to study completion): mild-moderate intensity | Adverse events: Mild ([7]; healthy volunteers, 3 mg dose): Dizziness; also recorded: Epistaxis; also recorded: Headache; also recorded: Back pain | Adverse events: Moderate ([7]; healthy volunteers, 3 mg dose): Headache | Adverse events: Mild ([7]; healthy volunteers, 10 mg dose): Headache | Adverse events: Mild ([7]; healthy volunteers, 30 mg dose): Headache | QTcF values ([7]; healthy volunteers, 3-60 mg, at any time): ≤ 500 ms | increase in QTcF ([7]; one subject, 10 mg, single increase at 24 hours post-dosing): > 60 ms | dose dependence of maximum serum concentration (Cmax) [8]: increased in a dose-dependent manner | Headaches ([9]; 60 mg treatment group): frequent | Headaches ([9]; 120 mg and 180 mg dose groups): attenuated | adverse effects observed ([9]; opioid-dependent participants, single 60, 120 or 180 mg): Few adverse effects | Dry Mouth ([9]; treatment emergent AE, 60 mg, N = 6): 0 | Tmax ([1]; healthy volunteers, single oral 30 mg noribogaine, fasted, plasma, mean (SD), n = 6, listed as noribogaine free base): 1.75 h | Mean half-life estimates [1, 13]: 28 to 50 h | time of peak concentrations after oral dosing [1, 13]: 2 to 3 h | mean AUC/24 hr ([1]; single dose of 3 mg noribogaine free base): 3.1 ng/mL | mean AUC/24 hr ([1]; single dose of 10 mg noribogaine free base): 10.6 ng/mL | mean AUC/24 ([1]; single dose of 30 mg noribogaine free base): 29.2 ng/mL | mean AUC/24 ([1]; single dose of 60 mg noribogaine free base): 61 ng/mL | dose dependence of Cmax and AUC ([1]; single oral 3-60 mg): increased linearly with dose

CC[C@@H]1C[C@H]2CC3c4[nH]c5ccc(O)cc5c4CCN(C2)C31.Cl [noribogaine hydrochloride]
craving to smoke (habitual smoker): any craving to smoke stopped

c1cnc2cc3c(cc2n1)[C@@H]1CNC[C@H]3C1 [varenicline, Varenicline, reference compound]
inactive lever press during nicotine self-administration (nicotine dependent rats): no significant main effect of treatment
